Read-outs that look alike come from different tables or passages of the source.
Experiments:
[1] = target: T1, TXA2 receptor (Homo sapiens, UniProt P21731); experiment: TXA2 binding assay, [3H]SQ 29,548, human platelet-based; details: for inhibition at 10 µM: inhibition of [3H]SQ 29,548 binding, human platelets
T1 construct: determined via the human platelet-based assay of Hedberg et al; from tissue; host or cells: human platelets
T1 sequence (P21731 1-343): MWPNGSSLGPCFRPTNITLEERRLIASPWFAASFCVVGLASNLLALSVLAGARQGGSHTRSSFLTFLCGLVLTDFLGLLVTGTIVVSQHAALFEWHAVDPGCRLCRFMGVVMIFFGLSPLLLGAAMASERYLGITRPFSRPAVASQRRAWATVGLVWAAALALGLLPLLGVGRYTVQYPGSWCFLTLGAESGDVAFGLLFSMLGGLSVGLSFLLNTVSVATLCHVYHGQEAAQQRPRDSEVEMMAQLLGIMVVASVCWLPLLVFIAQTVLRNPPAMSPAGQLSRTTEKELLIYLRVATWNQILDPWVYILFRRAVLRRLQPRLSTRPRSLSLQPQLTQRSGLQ
Protocol: The ability of 1-(3,4-dimethoxyphenyl)-4-methyl-5-ethyl-7-methoxy-8-hydroxy-5H-2,3-benzodiazepine to inhibit the binding of [^3H]SQ 29,548 (30-60 Ci/mmol) was determined via the human platelet-based assay of Hedberg et al., “Characterization of [^3H]SQ 29,548 as a High Affinity Radioligand Binding to Thromboxane A2—Receptors in Human Platelets.”, J. Pharmacol. Exp. Ther. 245: 786-792 (1988), with modifications. TXA2 is a very unstable molecule, thus a surrogate ligand of known affinity for the TXA2 receptor is required as a standard for determination of binding affinity of new potential TXA2 ligands. [^3H]SQ 29,548 is a ligand with known binding affinity for the TXA2 receptor. [^3H]SQ 29,548 has been employed as a TXA2 ligand in several published studies, is accepted as a TXA2 binding standard, and is thus useful as a standard in assessing the binding affinity of new compounds to the TXA2 receptor. See also, Armstrong, R. A., Jones, R. L., et al. “Ligand Binding to Thromboxane Receptors on Human Platelets: Correlation with Biological Activity.” Brit. Jrnl. Pharmac. 79:953-964 (1983), the entire disclosures of which are incorporated herein by reference.
Reactions were carried out in 25 mM TRIS-HCl (pH 7.4) containing 138 mM NaCl, 5 mM KCl, 5 mM MgCl2, 5.5 mM dextrose, and 2 mM EDTA at 25° C. for 60 minutes. […] The reaction was terminated by rapid vacuum filtration onto glass fiber filters. Radioactivity trapped onto the filters was determined and compared to control values in order to ascertain any interactions of test compound with the thromboxane A2 binding site.

[2] = test system: Male Swiss mice; experiment: Mouse maximal electroshock test; assay type: in vivo; details: for Duration of tonic seizure Mean ± SEM: i.p., about 30 min before electroshock, mice; for anticonvulsant activity: vs. vehicle
Protocol: In this model of tonic-clonic seizure activity, seizures were produced by application of an AC current via corneal electrodes. The maximal electroshock model is commonly employed to assay anticonvulsant activity. See, Swinyard et al., J. Pharmacol. Exp. Therap., 1952, 106, 319-330; the entire disclosure of which is incorporated herein by reference.
Each animal was dosed with one of:
(1) diazepam, 20 mg/kg dissolved in normal saline as a reference standard;
(2) 1-(3,4-dimethoxyphenyl)-4-methyl-5-ethyl-7-methoxy-8-hydroxy-5H-2,3-benzodiazepine at a dose of 15, 30, 45 or 60 mg/kg; dissolved in 15% DMSO, 35% PEG and 50% deionized water (vehicle); or
(3) vehicle comprising 15% DMSO, 35% PEG and 50% deionized water.
The concentrations of each of the dosed substances were normalized such that the volume of each dose was 10 mL/kg.
Approximately thirty minutes following administration of the above dose, full tonic-clonic seizures were induced in the animals by applying an AC current (50 Hz, 50 mA, 0.2 seconds) using an ECT unit 7800 (Ugo Basile, Comerio, Italy) through corneal electrodes. The appearance and duration of the induced seizures, as characterized by a tonic extension of hindlimbs past 90° were recorded. The seizure data are reproduced in Table 4 showing the seizure data as a mean with a standard error of the mean.

[3] = target: T2, LTB4 receptor (Cavia porcellus, UniProt H0VYV8); experiment: Inhibition of [3H]LTB4 binding, guinea pig spleen membrane assay
T2 construct: 1.0 mg/mL of the Guinea pig spleen membrane preparation; from tissue; host or cells: guinea pig spleen membranes
Protocol: The ability of 1-(3,4-dimethoxyphenyl)-4-methyl-5-ethyl-7-methoxy-8-hydroxy-5H-2,3-benzodiazepine to inhibit [^3H]LTB4 binding to the LTB4 receptor was determined as follows using the guinea pig spleen membrane assay of Cheng et al., J. Pharmacol. Exp. Ther., 236(1), 126-132, 1986, the entire disclosure of which is incorporated herein by reference.
Reactions were carried out in a phosphate buffer (pH 7.4) containing NaCl, MgCl2, EDTA, and bacitracin. The reaction volume of 150 μL containing 1.0 mg/mL of the Guinea pig spleen membrane preparation and 1 nM [^3H]LTB4, with or without a candidate inhibitor, was incubated at 0-4° C. for 2 hours. Candidate inhibitors included the compounds listed in Table 1 and unlabeled LTB4 as a control. The reaction was terminated by rapid vacuum filtration onto glass fiber filters. The filter was washed with cold buffer, dried and placed in a scintillation vial. Radioactivity trapped onto the filters was determined and compared to control values in order to ascertain any interactions of the test compound with the LTB4 binding site.

[4] = test system: adenosine receptor; experiment: Adenosine binding assay, [3H]-NECA, bovine striatal membrane
Protocol: The ability of 1-(3,4-dimethoxyphenyl)-4-methyl-5-ethyl-7-methoxy-8-hydroxy-5H-2,3-benzodiazepine to inhibit the binding of [^3H]5′-N-ethylcarboxamidoadenosine (NECA) (15-30 Ci/mmol) was determined via the bovine striatal membrane assay of Bruns et al., “Characterization of the A2 Adenosine Receptor Labeled by [^3H]-NECA in Rat Striatal Membrane”, Pharmacology, 29: 331-346 (1986), with modifications. See also, Weir et al. “Inhibition of N6-[^3H]CHA Binding by Carbamazepine” Epilepsia, 31(5), 503-512 (1990) with modifications; and Holtzman et al., “Role of Adenosine Receptors in Caffeine Tolerance,” J. Pharmacol. & Exp. Ther., 256(1), 62-67 (1990).
Reactions were carried out in 50 mM TRIS-HCl (pH 7.7) at 25° C. for 60 minutes. The reaction was terminated by rapid vacuum filtration onto glass fiber filters. Radioactivity trapped onto the filters was determined and compared to control values in order to ascertain any interactions of test compound with the adenosine binding site.

[5] = test system: rats; details: cited from earlier work
[6] = test system: mice; details: cited from earlier work
[7] = test system: mice; details: cited from earlier work; remark: listed apart in the source
[8] = test system: central BZ receptors; details: cited from earlier work
[9] = target: peripheral BZ receptors (Homo sapiens, UniProt P30536); details: cited from earlier work
Chain of peripheral BZ receptors (P30536 whole entry): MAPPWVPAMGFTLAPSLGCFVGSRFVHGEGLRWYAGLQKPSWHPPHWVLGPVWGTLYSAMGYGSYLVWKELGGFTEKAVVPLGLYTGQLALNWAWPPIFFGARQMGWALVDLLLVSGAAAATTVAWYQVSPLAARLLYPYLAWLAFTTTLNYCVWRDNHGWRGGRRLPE

T2 sequence (H0VYV8 1-348): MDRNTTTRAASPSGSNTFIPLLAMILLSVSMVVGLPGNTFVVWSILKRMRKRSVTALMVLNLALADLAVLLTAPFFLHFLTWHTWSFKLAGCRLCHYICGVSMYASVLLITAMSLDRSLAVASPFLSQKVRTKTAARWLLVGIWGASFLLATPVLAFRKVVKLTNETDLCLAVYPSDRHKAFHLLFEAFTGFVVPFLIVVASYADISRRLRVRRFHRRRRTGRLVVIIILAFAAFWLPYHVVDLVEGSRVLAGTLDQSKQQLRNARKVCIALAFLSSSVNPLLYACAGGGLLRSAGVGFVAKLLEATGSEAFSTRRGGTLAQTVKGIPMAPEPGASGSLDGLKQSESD

Molecule | inhibition at 10 µM [1] | inhibition at 10 µM [3] | Adenosine non-selective @ 10 μM (inhibition of [3H]-NECA binding) [4] | inhibition of muricide [5] | inhibition of aggression [6] | other results
CCC1C(C)=NN=C(c2ccc(OC)c(OC)c2)c2cc(O)c(OC)cc21 (racemic) [Compound 2, 1-(3,4-dimethoxyphenyl)-4-methyl-5-ethyl-7-methoxy-8-hydroxy-5H-2,3-benzodiazepine] | 48.3% | 36% | 61.50% | – | – | Duration of tonic seizure Mean ± SEM ([2]; 15 mg/kg): 9.0 ± 2.5 s; Duration of tonic seizure Mean ± SEM ([2]; 30 mg/kg): 5.5 ± 1.1 s; Duration of tonic seizure Mean ± SEM ([2]; 45 mg/kg): 6.5 ± 1.7 s; anticonvulsant activity ([2]; 60 mg dose): comparable anticonvulsant activity, but fell short of statistical significance; Duration of tonic seizure Mean ± SEM ([2]; 60 mg/kg): 5.7 ± 1.8 s; anticonvulsant activity ([2]; 30 and 45 mg/kg doses): statistically significant anticonvulsant activity; LTB4 % inhibition @ 10 μM ([3]; 10 µM): 35.96%
CCC1C(C)=NN=C(c2ccc(OC)c(OC)c2)c2cc(OC)c(O)cc21 (stereo not drawn) [Compound 1, 1-(3,4-dimethoxyphenyl)-4-methyl-5-ethyl-7-hydroxy-8-methoxy-5H-2,3-benzodiazepine] | 42.7% | 20.4% | 6.73% | 20% | 0% | –
CCC1C(C)=NN=C(c2ccc(O)c(OC)c2)c2cc(OC)c(OC)cc21 (stereo not drawn) [Compound 3, 1-(3-methoxy-4-hydroxyphenyl)-4-methyl-5-ethyl-7,8-dimethoxy-5H-2,3-benzodiazepine] | 1.98% | 49.9% | inactive | 0% | 0% | narcosis-potentiating activity [7]: demonstrate narcosis-potentiating activity
CCC1C(C)=NN=C(c2ccc(OC)c(O)c2)c2cc(OC)c(OC)cc21 (stereo not drawn) [Compound 4, 1-(3-hydroxy-4-methoxyphenyl)-4-methyl-5-ethyl-7,8-dimethoxy-5H-2,3-benzodiazepine] | 25.9% | 63.9% | 4.26% | – | – | –
CCC1C(C)=NN=C(c2ccc(O)c(OC)c2)c2cc(OC)c(O)cc21 (stereo not drawn) [Compound 5, 1-(3-methoxy-4-hydroxyphenyl)-4-methyl-5-ethyl-7-hydroxy-8-methoxy-5H-2,3-benzodiazepine] | 44% | – | 22.40% | 20% | 28.6% | LTB4 % inhibition @ 10 μM [3]: inactive
CCC1C(C)=NN=C(c2ccc(OC)c(O)c2)c2cc(OC)c(O)cc21 (stereo not drawn) [Compound 6, 1-(3-hydroxy-4-methoxyphenyl)-4-methyl-5-ethyl-7-hydroxy-8-methoxy-5H-2,3-benzodiazepine] | 45.7% | – | 27.52% | – | – | LTB4 % inhibition @ 10 μM [3]: inactive
CN1C(=O)CN=C(c2ccccc2)c2cc(Cl)ccc21 [Diazepam, diazepam] | – | – | – | – | – | Duration of tonic seizure Mean ± SEM ([2]; 20 mg/kg): 1.8 ± 0.7 s
CCC1C(C)=NN=C(c2ccc(OC)c(OC)c2)c2cc(OC)c(OC)cc21 (stereo not drawn) [tofisopam] | – | – | – | – | – | interaction with central BZ receptors [8]: does not interact; binding to peripheral BZ receptors [9]: binds only weakly
Pinane-thromboxane | – | – | – | – | – | Ki ([1]; competitor in the [3H]SQ 29,548 binding assay): 149 nM
